Results on three compounds are retold here after patent US20100137258A1, “THIOPHOSPHI(O)NIC ACID DERIVATIVES AND THEIR THERAPEUTICAL APPLICATIONS” (priority 2007, published 2010).

The subject of series [1] is group III mGlu receptors. The conditions noted are these: cited from earlier work.
For series [2], the system named is group III mGlu receptors. The series is described as follows: Agonist activity across all group III mGlu receptor subtypes (summary). The series is classed as cell-based, rat. The source says:
(§1) These receptors were transiently expressed in HEK-293 cells as previously described. Since group III mGlu receptors are not naturally coupled to phospholipase-C but rather inhibit adenylyl cyclase, receptors were co-transfected with a chimeric G-protein alpha subunit which is recognized by these receptors but effectively activates the phospholipase-C pathway. Thus, the functional assay consisted in measuring the total inositol phosphate production resulting from receptor activation (ref. 10, 11).
(§2) Cells were transiently transfected with rat clones of group-III mGlu receptors (mGlu4, mGlu6, mGlu7 and mGlu8) by electroporation as described elsewhere (ref. 6) and plated in 96-well microplates. The high affinity glutamate transporter EAAC1 was also co-transfected with the receptor in order to avoid any influence of glutamate released by the cells in the assay medium. Since group-III mGluRs activates naturally Gi/o-proteins which modulate the adenylyl-cyclase pathway, these receptors were co-transfected with a chimeric G-protein which is recognized by these receptors but couples to the phospholipase-C pathway, thus leading to inositol phosphate (IP) production following receptor activation (ref. 7). Receptor activity was then determined by measurement of the IP production.
Functional assay. […]

Another series deals with T1, mGlu7 (Rattus norvegicus, UniProt P35400).
T1 construct: expressed in transfected cells; host or cells: HEK293 (transient, electroporation)
T1 sequence (P35400 35-915): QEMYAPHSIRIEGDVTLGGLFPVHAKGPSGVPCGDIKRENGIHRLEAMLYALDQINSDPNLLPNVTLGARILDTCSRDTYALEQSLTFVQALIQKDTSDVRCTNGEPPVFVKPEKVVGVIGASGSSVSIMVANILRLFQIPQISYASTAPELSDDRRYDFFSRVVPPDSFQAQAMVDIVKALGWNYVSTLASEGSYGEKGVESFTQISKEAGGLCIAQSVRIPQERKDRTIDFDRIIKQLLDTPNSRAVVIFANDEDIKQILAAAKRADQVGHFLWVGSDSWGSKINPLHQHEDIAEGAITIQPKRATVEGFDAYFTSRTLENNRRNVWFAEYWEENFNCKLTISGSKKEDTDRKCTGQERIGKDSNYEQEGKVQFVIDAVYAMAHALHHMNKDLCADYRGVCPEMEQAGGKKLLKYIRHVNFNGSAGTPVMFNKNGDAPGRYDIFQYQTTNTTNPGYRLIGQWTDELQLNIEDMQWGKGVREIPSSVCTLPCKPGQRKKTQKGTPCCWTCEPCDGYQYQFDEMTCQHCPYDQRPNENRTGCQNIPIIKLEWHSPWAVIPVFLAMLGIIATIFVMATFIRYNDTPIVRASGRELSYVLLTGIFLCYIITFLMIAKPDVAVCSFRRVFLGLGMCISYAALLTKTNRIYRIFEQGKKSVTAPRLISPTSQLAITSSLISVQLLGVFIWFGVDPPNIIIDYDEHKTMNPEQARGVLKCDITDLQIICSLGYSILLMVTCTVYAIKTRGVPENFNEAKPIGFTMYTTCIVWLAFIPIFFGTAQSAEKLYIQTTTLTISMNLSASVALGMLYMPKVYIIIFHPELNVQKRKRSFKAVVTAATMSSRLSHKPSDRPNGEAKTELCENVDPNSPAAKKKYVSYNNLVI
The series is described as follows: Inositol phosphate production in transfected HEK293 cells, mGlu7. The series is classed as cell-based.
Excerpt: as §1
(§3) Cell culture and transfection. Pharmacological experiments were carried out using HEK293 cells. Cells were cultured in Dulbecco's modified Eagle's medium supplemented with 10% foetal calf serum (FCS) and antibiotics (Penicillin and Streptomycin, 100 U/mL final).
(§4) Cells were transiently transfected with rat clones of group-III mGlu receptors (mGlu4, mGlu6, mGlu7 and mGlu8) by electroporation as described elsewhere (ref. 6) and plated in 96-well microplates. The high affinity glutamate transporter EAAC1 was also co-transfected with the receptor in order to avoid any influence of glutamate released by the cells in the assay medium. […] Receptor activity was then determined by measurement of the IP production. […]

The test system of a further series is mGlu1/5 receptors. The series is described as follows: Effect at mGlu1/5 receptors. The series is classed as cell-based.
Series [3] concerns group I and II mGlu receptors. The series is described as follows: Selectivity versus group I and II mGlu receptors. The format is cell-based.
Another series addresses T2, mGlu8 (Rattus norvegicus, UniProt P70579).
T2 construct: expressed in transfected cells; host or cells: HEK293 (transient, electroporation)
The format is cell-based.
Excerpt: as §1, §3, §2
(§5) Functional assay. Inositol phosphate determination experiments in 96-well microplates were performed as already described (ref. 15). Briefly, 6 h following transfection, cell medium was removed and replaced by fresh medium devoid of glutamate, not complemented with FCS, and that contained ^3H-myoinositol. Cells were incubated overnight in this medium. The following day, cells were rinsed and ambient glutamate degraded by incubation in presence of GPT. Cells were stimulated by agonist for 30 min then the medium was removed and cells incubated for 1 h with cold 0.1 M formic acid which induced cell lysis. The ^3H-IP produced following receptor stimulation were recovered by ion exchange chromatography using a Dowex resin (Biorad). […] All points are realized in triplicate.

In the next series the target is T3, mGlu4 (Rattus norvegicus, UniProt P31423).
T3 construct: expressed in transfected cells; host or cells: HEK293 (transient, electroporation)
T3 sequence (P31423 33-912): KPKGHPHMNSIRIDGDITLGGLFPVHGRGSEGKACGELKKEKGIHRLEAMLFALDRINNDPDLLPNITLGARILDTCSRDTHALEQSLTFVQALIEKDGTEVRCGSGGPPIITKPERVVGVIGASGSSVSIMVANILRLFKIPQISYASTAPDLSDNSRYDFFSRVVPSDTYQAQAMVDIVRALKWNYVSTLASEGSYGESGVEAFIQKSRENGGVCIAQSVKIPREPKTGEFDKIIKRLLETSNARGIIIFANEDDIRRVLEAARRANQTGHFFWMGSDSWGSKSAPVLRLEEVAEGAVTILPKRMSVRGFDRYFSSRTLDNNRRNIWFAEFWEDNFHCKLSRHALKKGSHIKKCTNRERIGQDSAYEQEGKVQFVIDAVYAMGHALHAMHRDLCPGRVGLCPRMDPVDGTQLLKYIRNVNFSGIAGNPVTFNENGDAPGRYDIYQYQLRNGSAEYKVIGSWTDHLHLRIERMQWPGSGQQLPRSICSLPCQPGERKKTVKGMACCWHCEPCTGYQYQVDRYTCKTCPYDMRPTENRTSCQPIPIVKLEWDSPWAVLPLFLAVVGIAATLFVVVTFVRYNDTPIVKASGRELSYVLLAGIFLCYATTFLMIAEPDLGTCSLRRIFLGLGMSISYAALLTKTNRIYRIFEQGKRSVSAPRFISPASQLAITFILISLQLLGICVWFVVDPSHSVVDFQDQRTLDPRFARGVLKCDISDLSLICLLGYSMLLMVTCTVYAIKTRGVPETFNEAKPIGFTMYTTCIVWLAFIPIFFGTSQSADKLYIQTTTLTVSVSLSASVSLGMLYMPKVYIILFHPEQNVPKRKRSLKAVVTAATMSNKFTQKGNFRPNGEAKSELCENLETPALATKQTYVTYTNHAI
The series is classed as cell-based.
Excerpt: as §1, §3, §2, §5

For a further series, the target named is T4, mGlu6 (Rattus norvegicus, UniProt P35349).
T4 construct: expressed in transfected cells; host or cells: HEK293 (transient, electroporation)
T4 sequence (P35349 24-871): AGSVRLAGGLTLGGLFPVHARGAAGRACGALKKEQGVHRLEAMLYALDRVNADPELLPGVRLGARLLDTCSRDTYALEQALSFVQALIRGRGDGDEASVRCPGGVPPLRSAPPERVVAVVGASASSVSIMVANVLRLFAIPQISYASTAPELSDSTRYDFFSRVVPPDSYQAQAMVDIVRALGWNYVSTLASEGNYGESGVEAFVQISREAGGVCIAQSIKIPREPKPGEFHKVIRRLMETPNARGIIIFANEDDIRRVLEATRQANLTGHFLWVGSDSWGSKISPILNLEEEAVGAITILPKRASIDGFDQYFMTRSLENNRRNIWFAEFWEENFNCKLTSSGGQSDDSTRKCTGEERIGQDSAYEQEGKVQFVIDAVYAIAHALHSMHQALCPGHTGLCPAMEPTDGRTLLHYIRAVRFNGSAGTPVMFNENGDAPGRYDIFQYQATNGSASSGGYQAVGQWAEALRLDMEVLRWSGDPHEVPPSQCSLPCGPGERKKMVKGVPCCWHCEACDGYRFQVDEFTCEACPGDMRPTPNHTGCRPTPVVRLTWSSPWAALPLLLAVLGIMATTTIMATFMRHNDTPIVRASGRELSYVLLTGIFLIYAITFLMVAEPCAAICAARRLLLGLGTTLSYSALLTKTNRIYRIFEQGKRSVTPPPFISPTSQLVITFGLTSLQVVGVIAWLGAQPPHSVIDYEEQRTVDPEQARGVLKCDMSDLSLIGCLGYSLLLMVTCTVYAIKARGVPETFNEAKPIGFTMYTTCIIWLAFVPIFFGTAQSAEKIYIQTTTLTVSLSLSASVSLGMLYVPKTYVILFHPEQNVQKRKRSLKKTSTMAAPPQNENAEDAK
Description: Inositol phosphate production in transfected HEK293 cells, mGlu6. The series is classed as cell-based.
Excerpt: as §1, §3, §4

For series [4] the following is noted: 31P NMR chemical shift versus pH, 27° C.
Description: In order to compare them, the pKa values of these amino acids were evaluated. […] Indicated pKa3 values were calculated by non-linear regression analysis using GraphPad Prism program. In addition, the ^31P NMR chemical shifts of 1 and 4 are sensitive to the ionization state, thus titration curves may be obtained from their pH dependence (ref. 7-9) (FIG. 1B). […] The pKa1 and pKa2 values are too close to be determined from the titration curves, however pKa3 and pKa4 are easily measured. […]
Each ^31P NMR spectrum was acquired at 27° C. with external H3PO4 (95%) reference at 0 ppm (sealed capillary). […] A total of 27 spectra (1) or 23 spectra (4) were recorded over a pH range of 0.50-12.50 (1) or 0.51-12.56 (4). The P NMR chemical shifts of the dianionic and monoanionic forms of the (thio)phosphonate groups were plotted against measured pH. All pKa values were calculated by non-linear regression analysis using the GraphPad Prism program (GraphPad Software Inc., San Diego Calif.) and the equation pH=pKa−log[(δa−δ)/(δ−δb)] where δ is the ^31P NMR chemical shift at varying pH, δa and δb the ^31P NMR chemical shifts with titrating group in fully acidic or basic form respectively.
A further series deals with mGlu4R (Homo sapiens, UniProt Q14833). The conditions noted are these: read-out: EC50 as mGlu4R agonist; background statement; cited from earlier work.
In the next series the target is mGlu2 receptor (Homo sapiens, UniProt Q14416). The following applies: described in the literature; cited from earlier work.
mGlu2 receptor, sequence (Q14416 19-872): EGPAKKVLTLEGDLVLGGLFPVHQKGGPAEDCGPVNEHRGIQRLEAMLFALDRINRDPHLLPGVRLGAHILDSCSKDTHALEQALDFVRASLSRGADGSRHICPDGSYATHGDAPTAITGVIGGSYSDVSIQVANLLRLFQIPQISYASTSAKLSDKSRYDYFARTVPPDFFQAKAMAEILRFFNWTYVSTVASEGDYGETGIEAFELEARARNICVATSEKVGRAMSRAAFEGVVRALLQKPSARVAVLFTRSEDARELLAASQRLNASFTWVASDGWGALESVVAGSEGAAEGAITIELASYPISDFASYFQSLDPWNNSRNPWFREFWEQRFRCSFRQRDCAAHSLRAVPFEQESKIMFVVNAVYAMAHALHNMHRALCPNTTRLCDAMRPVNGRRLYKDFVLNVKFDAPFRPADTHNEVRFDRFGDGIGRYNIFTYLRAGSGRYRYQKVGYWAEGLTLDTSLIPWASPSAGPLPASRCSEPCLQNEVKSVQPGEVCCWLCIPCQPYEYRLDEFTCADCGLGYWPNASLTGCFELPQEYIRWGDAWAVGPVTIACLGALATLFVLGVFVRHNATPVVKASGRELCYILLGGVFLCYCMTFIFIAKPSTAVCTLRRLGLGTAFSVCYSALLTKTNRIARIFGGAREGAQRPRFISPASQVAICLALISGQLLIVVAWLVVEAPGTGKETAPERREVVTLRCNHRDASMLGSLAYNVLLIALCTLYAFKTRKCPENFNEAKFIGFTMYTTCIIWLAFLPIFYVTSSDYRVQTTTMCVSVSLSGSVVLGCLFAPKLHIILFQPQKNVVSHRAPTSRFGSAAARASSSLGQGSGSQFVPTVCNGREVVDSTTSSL
Setting [5] is: agonist activity, IP production, HEK-293, mean ± SEM (n).

Read-outs that look alike come from different tables or passages of the source.

T2 sequence (P70579 34-908): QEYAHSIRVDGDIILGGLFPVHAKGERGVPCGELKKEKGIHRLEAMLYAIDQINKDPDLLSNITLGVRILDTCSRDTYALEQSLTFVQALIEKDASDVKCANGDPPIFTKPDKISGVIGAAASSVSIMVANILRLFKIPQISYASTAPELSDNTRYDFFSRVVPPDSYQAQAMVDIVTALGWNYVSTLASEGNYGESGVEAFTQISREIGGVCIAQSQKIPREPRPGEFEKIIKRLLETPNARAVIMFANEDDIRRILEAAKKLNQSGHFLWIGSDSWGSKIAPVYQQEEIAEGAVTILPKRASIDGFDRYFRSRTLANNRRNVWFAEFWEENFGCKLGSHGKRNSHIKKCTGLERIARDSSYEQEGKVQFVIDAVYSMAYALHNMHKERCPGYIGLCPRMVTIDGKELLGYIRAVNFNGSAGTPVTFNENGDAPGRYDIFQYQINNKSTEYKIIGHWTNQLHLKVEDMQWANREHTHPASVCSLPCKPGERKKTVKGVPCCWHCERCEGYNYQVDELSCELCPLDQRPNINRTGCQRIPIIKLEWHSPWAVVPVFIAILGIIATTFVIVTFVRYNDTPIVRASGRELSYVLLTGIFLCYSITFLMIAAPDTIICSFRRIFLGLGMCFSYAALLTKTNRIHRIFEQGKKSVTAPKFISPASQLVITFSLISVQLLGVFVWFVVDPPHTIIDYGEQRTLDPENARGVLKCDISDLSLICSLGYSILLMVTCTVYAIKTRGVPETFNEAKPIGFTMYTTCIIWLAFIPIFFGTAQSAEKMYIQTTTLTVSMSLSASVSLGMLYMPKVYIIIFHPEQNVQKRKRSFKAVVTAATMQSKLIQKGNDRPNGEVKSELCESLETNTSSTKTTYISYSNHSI

With `N[C@@H](CCS(=O)(=O)O)C(=O)O` [L-homocysteic acid], the “activity compared to glutamate at group III mGlu receptors” value in the series with group III mGlu receptors [1] is recorded as “no enhanced activity compared to glutamate”.

For the compound `N[C@@H](CCP(O)(O)=S)C(=O)O` [L-thioAP4, L(+)-2-Amino-4-thiophosphonobutyric acid], the “selectivity among group III mGlu receptor subtypes” value with group III mGlu receptors [2] is “not subtype selective”. Also, the “activity relative to L-AP4 (1)” value in the series on group III mGlu receptors [2] (on all subtypes, Student's paired T test P<0.05) is recorded as “about two fold”. Besides, the 50% effective concentration (EC50) (as a rule, the midpoint of the concentration-response curve) on mGlu7 worked out at 197 µM; on mGlu8, 54 nM; on mGlu4, 39 nM; on mGlu6 it was 730 nM. For the same compound, the “effect at mGlu1/5 receptors” value with mGlu1/5 receptors is “no effect”. In addition, the “agonist or antagonist activity on group I and II mGlu receptors” value in series [3] is given as “no agonist or antagonist activity”.

Turning to `N[C@@H](CCP(=O)(O)O)C(=O)O` [L-AP4, L(+)-2-Amino-4-phosphonobutyric Acid], the “experimental pKa3” value in series [4] (second acidity of (thio)phosphonate) was found to be 6.88. For the same compound, the “experimental pKa4” value in [4] (α-ammonium group) amounted to 9.90. Further, the concentration for a half-maximal effect (EC50) is 320 nM at mGlu4R; 440 ± 120 µM at mGlu7 (setting [5]); 128 ± 19 nM at mGlu8 (setting [5]); 80 ± 17 nM at mGlu4 (setting [5]); 2080 ± 380 nM at mGlu6 (setting [5]). Besides, the “mGlu2 receptor antagonist activity” value at mGlu2 receptor is listed as “modest mGlu2 receptor antagonist”. For the same compound, the “effect at mGlu1/5 receptors” value with mGlu1/5 receptors was “no effect”. In addition, the “agonist or antagonist activity on group I and II mGlu receptors” value in series [3] (at 100 μM) was “no agonist or antagonist activity”.
